Test results from patent US11460474B2, “Marker for statin treatment stratification in heart failure” (Roche Diagnostics Operations, Inc., priority 2013, dated 2022).

Key:
[1] = tested on: patient with heart failure; assay: Case examples: statin therapy started after biomarker determination in heart failure patients; settings: person
Protocol: PlGF is determined in a plasma sample obtained from the patient. The PlGF value is above 22 pg/mL. The physician prescribes atorvastatin 20 mg/d and closely monitors creatine kinase to exclude myopathy.

patients with CHF = settings: rosuvastatin 10 mg daily, CORONA and GISSI-HF trials; cited from earlier work

Compound	outcome (death or hospitalization) ([1]; NYHA class III heart failure, prior myocardial infarction, PlGF above 22 pg/mL, atorvastatin 20 mg/d, next 1.5 years)	outcome (death or hospitalization) ([1]; class C heart failure, no CAD, GDF-15 above 3800 pg/mL, atorvastatin 10 mg/d, next 16 months)	effect of statin treatment on primary end point (patients with CHF)
CC(C)c1c(C(=O)Nc2ccccc2)c(-c2ccccc2)c(-c2ccc(F)cc2)n1CC[C@@H](O)C[C@@H](O)CC(=O)O [atorvastatin, Atorvastatin]	remains stable with a good outcome	remains stable with a good outcome	–
CC(C)c1nc(N(C)S(C)(=O)=O)nc(-c2ccc(F)cc2)c1/C=C/[C@@H](O)C[C@@H](O)CC(=O)O [rosuvastatin, Rosuvastatin]	–	–	failed to demonstrate a beneficial effect
